Assay results reported in BindingDB's records for PubMed 33592144 (Merck, 2021).

What follows are molecules tested against Proprotein convertase subtilisin/kexin type 9 (Homo sapiens, UniProt Q8NBP7) (assay: Inhibition of human C-terminal V5 epitope tagged PCSK9 by luciferase reporter assay).
An IC50 of 4500 nM was found for `COc1ccc(CCC(=O)N(c2nccc3ccccc23)[C@@H]2CCCNC2)cc1` in this work. An IC50 of 300 nM was found for `O=C(c1ccc(-c2cnn3cccnc23)cc1)N(c1ncccc1Cl)[C@@H]1CCCNC1` [US9227956, 2] in this work. An IC50 of 300 nM was found for `O=C(c1ccc(-n2nnc3ccccc32)cc1)N(c1ncccc1Cl)[C@@H]1CCCNC1` in this work.
